These results are taken from patent EP1149074B1, “ACETYLENIC SULFONAMIDE THIOL TACE INHIBITORS” (Wyeth Holdings Corporation, priority 1999, dated 2000).

One assay concerns the target TACE (Homo sapiens, UniProt P78536). Briefly: TACE inhibition test procedure (fluorescent peptidyl substrate). The format is biochemical. The procedure: Test Procedure for Measuring TACE Inhibition
Using 96-well black microtiter plates, each well receives a solution composed of 10 µL TACE (final concentration 1µg/mL), 70µL Tris buffer, pH 7.4 containing 10% glycerol (final concentration 10 mM), and 10 µL of test compound solution in DMSO (final concentration 1µM, DMSO concentration <1%) and incubated for 10 minutes at room temperature. The reaction is initiated by addition of a fluorescent peptidyl substrate (final concentration 100 µM) to each well and then shaking on a shaker for 5 sec.
The reaction is read (excitation 340 nm, emission 420 nm) for 10 min. and the increase in fluorescence over time is plotted as a linear line. The slope of the line is calculated and represents the reaction rate.
The linearity of the reaction rate is confirmed (r^2 >0.85). The mean (x±sem) of the control rate is calculated and compared for statistical significance (p<0.05) with drug-treated rates using Dunnett's multiple comparison test. Dose-response relationships can be generate using multiple doses of drug and IC50 values with 95% CI are estimated using linear regression.

The subject of another assay is THP-1 cells. Nature of the assay: Human monocytic THP-1 cell differentiation assay for soluble proteins (THP-1 soluble protein assay). The format is cell-based. The conditions noted are these: LPS-stimulated THP-1 cells; quantity, unit and concentration not given. An excerpt: Human Monocytic THP-1 Cell Differentiation Assay For Soluble Proteins (THP-1 Soluble Protein Assay)
Mitogenic stimulation of THP-1 cells cause differentiation into macrophage like cells with concomitant secretion of tumor necrosis factor (TNF-α) and TNF receptor (TNF-R p75/80 and TNF-R p55/60) and Interleukin-8 (IL-8), among other proteins. In addition, non-stimulated THP-1 cells shed both the p75/80 and the […] receptors over time. The release of membrane bound TNF-α and possibly TNF-R p75/80 and TNF-R p55/60, but not IL-8, is mediated by an enzyme called TNF-α converting enzyme or TACE.
THP-1 cells (from ATCC) are a human monocytic cell line which were obtained from the peripheral blood of a person with acute monocytic leukemia. They can be grown in culture and differentiated into macrophage like cells by stimulation with mitogens.
For the assay, THP-1 cells are seeded from an ATCC stock which was previously grown and frozen back at 5 x 10^6/ml/vial. […]
To perform an assay, the THP-1 cells are co-incubated in a 24 well plate with […] of a 24 mg/ml stock of Lipopolysacharide (LPS) (Calbiochem Lot# B13189) at 37°C in 5% CO2 at a concentration of 1.091 x 10^6 cells/ml (1.1 ml/well) for a total of 24 hours. […] Compounds can be evaluated for their effect on basal (non-stimulated) shedding of the receptors by replacing the LPS with […] of THP-1 media. […]
In addition, at the 24 hours timepoint, and the cells for each treatment group are collected by resuspension in 500 µl/well of THP-1 media and transferred into a FACS tube. […] The samples are run on a Becton Dickinson FaxCaliber FLOW cytometry machine and the amount of dye taken up by each cell is measured in the high red wavelength (FL3). […] The percent of live cells is calculated by the number of cells not stained with PI, divided by the total number of cells in the sample. The viability values calculated for the drug treated groups were compared to the viability value calculated for the vehicle treated mitogen stimulated group ("vehicle positive control") to determine the "percent change from control". […]

TACE, sequence (P78536 215-824): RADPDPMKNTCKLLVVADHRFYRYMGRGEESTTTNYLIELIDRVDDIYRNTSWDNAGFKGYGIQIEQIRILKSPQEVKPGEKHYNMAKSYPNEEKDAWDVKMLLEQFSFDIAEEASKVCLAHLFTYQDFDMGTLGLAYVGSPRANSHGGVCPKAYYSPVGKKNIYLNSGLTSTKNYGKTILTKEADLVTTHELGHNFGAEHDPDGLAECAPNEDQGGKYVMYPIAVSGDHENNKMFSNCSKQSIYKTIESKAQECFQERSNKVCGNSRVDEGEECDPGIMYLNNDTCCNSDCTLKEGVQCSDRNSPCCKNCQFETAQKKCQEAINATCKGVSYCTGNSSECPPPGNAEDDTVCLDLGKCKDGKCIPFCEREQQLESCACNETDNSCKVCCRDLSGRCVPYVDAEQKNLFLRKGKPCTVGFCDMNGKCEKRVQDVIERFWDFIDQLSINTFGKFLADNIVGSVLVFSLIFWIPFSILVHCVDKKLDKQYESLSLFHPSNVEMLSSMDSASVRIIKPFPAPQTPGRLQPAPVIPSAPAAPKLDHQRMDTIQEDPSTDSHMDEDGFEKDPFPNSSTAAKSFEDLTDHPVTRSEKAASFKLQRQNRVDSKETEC

For `CC#CCOc1ccc(S(=O)(=O)N(CCN2CCOCC2)[C@@H](CS)C(N)=O)cc1` [Example 15, (2R)-2-{{[4-(2-Butynyloxy)phenyl]sulfonyl}[2-(4-morpholinyl)ethyl]amino}-3-sulfanylpropanamide], on TACE, 263 nM corresponded to half-maximal inhibition (IC50). In the assay on THP-1 cells, the THP was determined as 19. As for `CC#CCOc1ccc(S(=O)(=O)N(C)[C@H](C)CS)cc1` [Example 8, 4-But-2-ynyloxy-N-((1R)-2-mercapto-1-methyl-ethyl)-N-methyl-benzenesulfonamide], the THP in the assay with THP-1 cells is listed as 3. With `CC#CCOc1ccc(S(=O)(=O)N(CCN2CCOCC2)[C@H](C)CS)cc1` [Example 11, 4-(2-Butynyloxy)-N-[(1R)-1-methyl-2-sulfanylethyl]-N-[2-(4-morpholinyl)ethyl]benzenesulfonamide], the IC50 against TACE was 362 nM. This compound had a THP in the assay with THP-1 cells of 11.

A word on the IC50: it is the concentration that inhibits the measured activity by half.
